Source: patent US5648366A, “Substituted pyrrolidin-3-yl-alkyl-piperidines” (Merrell Pharmaceuticals Inc., priority 1995, dated 1997)

Each compound was assayed against NK1 receptor (Cavia porcellus, UniProt P30547) (assay: Antagonism of iodinated tachykinin (125I-substance P) binding to NK1 receptor in guinea pig lungs). Conditions: guinea pig lungs; mean of several experiments; read-out: NK-1 IC50.
Sequence of NK1 receptor (P30547 whole entry): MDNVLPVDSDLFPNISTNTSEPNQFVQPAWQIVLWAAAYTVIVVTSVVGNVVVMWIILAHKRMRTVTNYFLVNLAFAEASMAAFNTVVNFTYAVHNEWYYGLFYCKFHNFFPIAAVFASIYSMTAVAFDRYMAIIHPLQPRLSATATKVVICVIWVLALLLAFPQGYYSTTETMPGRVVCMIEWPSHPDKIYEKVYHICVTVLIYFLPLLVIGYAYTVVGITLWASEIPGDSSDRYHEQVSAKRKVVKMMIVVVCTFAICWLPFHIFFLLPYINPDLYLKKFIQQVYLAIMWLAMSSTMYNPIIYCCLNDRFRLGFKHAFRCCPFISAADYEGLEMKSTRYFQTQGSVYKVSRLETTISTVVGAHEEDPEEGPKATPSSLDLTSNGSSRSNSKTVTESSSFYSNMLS
Set-up: tissue Keystone Biologicals, Cleveland, Ohio; host or cells: guinea pig lung membranes
Experimental: ANTAGONISM OF IODINATED TACHYKININ BINDING TO NK1 AND NK2 RECEPTORS BY PUTATIVE ANTAGONISTS
The NK1 receptor affinity of proposed tachykinin antagonists was evaluated in guinea pig lungs (Keystone Biologicals, Cleveland, Ohio), affinity for the NK2 receptor evaluated in HSKR-1 cells (which are mouse 3T3 fibroblasts expressing the human jejunal NK2 receptor) and NK-3 receptor affinity was evaluated in freshly collected guinea pig cerebral cortex. Tissues or cells were homogenized with a Polytron in 15 volumes of 50 mM Tris-HCl buffer (pH 7.4, 4° C.) and centrifuged. The pellet was resuspended in Tris-HCl buffer and was centrifuged; the pellet was washed twice by resuspension. The final pellet was resuspended at a concentration of 40 mg/ml for tissues (guinea pig lung and cerebral cortex) and 20 mg/ml for cells in incubation buffer and remained at room temperature for at least 15 min prior to use. Receptor binding was initiated by addition of 250 ul membrane preparation in duplicate to 0.1 nM of the following radioligands: ^125 I-Bolton Hunter Lys-3 labeled substance P; ^125 iodohistidyl-1-neurokinin A; and ^125 I-Bolton Hunter labeled Lys-4 eledoisin in a final volume of 500 ul of buffer containing 50 mM Tris-HCl (pH 7.4 at room temperature), 0.1% bovine serum albumin, 2 mM MnCl2, 40 ug/ml bacitracin, 4 µg/ml leupeptin and chymostatin, 1 μM thiorphan and various doses of the putative tachykinin antagonists. Incubations were performed at room temperature for 90 min (NK1 receptor assays) or 2 hr (NK2 and NK3 receptor assays); binding was terminated by addition of 50 mM Tris-HCl buffer (pH 7.4, 4° C.) and filtration under vacuum through GF/B filters presoaked with 0.1% polyethyleneimine (NK1 receptor assays) or 0.5% bovine serum albumin (NK2 and NK3 receptor assays). Filter bound radioactivity was quantitated in a gamma counter. Nonspecific binding was defined as binding in the presence of 1 μM substance P, neurokinin A, or eledoisin. Specific binding was calculated by subtracting nonspecific binding from total binding. Competition of iodinated SP, NKA, or eledoisin binding by test compounds or standards was expressed as a percentage of this maximum competition. IC50 values (concentration required to inhibit 50% of receptor binding) were generated for each of the test compounds by nonlinear regression using an iterative curve fitting program (GraphPAD Inplot, San Diego, Calif.).
Work on NC(=O)C1(c2ccccc2)CCN(CCC2(c3ccc(Cl)c(Cl)c3)CCN(C(=O)c3ccccc3)C2)CC1 (stereo not drawn) [Example 1, 1-[2-[3-(3,4-dichloro-phenyl)-1-benzoyl-pyrrolidin-3-yl]-ethyl]-4-phenyl-piperidine-4-carboxylic acid amide] yielded an IC50 of 270 nM. For COc1ccccc1CC(=O)N1CCC(CCN2CCC(C(N)=O)(c3ccccc3)CC2)(c2ccc(Cl)c(Cl)c2)C1 (stereo not drawn) [Example 4, 1-(2-[3-(3,4-dichloro-phenyl)-1-[2-(2-methoxy-phenyl)-acetyl]-pyrrolidin-3-yl]-ethyl)-4-phenyl-piperidine-4-carboxylic acid amide], the IC50 was 48 nM. COc1ccccc1C(=O)N1CCC(CCN2CCC(C(N)=O)(c3ccccc3)CC2)(c2ccc(Cl)c(Cl)c2)C1 (stereo not drawn) [Example 13, 1-[2-[3-(3,4-dichloro-phenyl)-1-(2-methoxy-benzoyl)-pyrrolidin-3-yl]-ethyl]-4-phenyl-piperidine-4-carboxylic acid amide] was tested, and the IC50 was 74 nM.
